Tests used:
Assay in all cases: β-arrestin based GPCR screen (PathHunter / GPCRmax), antagonist mode
168 GPCRs [1] = target: 168 GPCRs (Homo sapiens, UniProt P21731); conditions: TBXA2R
168 GPCRs [2] = target: 168 GPCRs (Homo sapiens, UniProt Q01726); conditions: MC1R
168 GPCRs [3] = target: 168 GPCRs (Homo sapiens, UniProt Q8TDS4); conditions: GPR109A
168 GPCRs [4] = target: 168 GPCRs (Homo sapiens, UniProt P25021)
168 GPCRs [5] = target: 168 GPCRs (Homo sapiens, UniProt P41587)
168 GPCRs [6] = target: 168 GPCRs (Homo sapiens, UniProt P51677); conditions: CCR3, Antagonist
168 GPCRs [7] = target: 168 GPCRs (Homo sapiens, UniProt P32249)
168 GPCRs (Homo sapiens, UniProt P32249), sequence (P32249 whole entry): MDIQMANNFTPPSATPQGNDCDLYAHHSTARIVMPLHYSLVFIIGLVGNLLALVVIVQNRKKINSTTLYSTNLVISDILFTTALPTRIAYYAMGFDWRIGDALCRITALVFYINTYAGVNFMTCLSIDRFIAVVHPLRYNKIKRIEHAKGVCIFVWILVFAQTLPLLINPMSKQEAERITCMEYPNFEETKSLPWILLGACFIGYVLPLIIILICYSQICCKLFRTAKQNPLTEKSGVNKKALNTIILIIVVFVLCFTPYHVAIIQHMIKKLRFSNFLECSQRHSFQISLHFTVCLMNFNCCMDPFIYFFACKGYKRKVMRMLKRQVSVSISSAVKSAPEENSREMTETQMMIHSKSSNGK

168 GPCRs [8] = target: 168 GPCRs (Homo sapiens, UniProt P29371)
168 GPCRs (Homo sapiens, UniProt P29371), sequence (P29371 whole entry): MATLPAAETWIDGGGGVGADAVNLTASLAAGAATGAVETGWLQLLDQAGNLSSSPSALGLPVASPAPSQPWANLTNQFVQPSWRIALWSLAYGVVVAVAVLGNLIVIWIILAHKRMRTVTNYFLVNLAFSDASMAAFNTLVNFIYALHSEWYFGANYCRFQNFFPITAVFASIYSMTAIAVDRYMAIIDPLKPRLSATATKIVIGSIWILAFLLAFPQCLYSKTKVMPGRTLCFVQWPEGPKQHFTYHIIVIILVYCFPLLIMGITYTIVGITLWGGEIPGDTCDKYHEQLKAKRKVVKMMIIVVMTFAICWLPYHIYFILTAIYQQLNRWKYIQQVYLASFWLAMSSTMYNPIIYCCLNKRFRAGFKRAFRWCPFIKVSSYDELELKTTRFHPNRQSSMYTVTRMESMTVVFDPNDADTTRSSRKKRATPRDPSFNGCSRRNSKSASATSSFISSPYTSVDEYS

168 GPCRs [9] = target: 168 GPCRs (Homo sapiens, UniProt P47901); conditions: AVPR1B, Antagonist
168 GPCRs (Homo sapiens, UniProt P47901), sequence (P47901 whole entry): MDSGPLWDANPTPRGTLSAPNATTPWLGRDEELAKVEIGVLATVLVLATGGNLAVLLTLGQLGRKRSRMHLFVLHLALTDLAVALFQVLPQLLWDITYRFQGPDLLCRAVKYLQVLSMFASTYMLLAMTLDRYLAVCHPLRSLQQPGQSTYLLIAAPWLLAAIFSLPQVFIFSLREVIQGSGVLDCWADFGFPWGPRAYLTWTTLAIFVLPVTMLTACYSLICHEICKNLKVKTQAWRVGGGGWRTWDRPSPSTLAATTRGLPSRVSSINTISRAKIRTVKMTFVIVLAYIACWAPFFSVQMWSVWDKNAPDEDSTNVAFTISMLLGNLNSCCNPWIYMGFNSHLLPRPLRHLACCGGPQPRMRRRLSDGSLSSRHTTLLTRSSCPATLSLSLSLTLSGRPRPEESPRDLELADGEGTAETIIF

168 GPCRs [10] = target: 168 GPCRs (Homo sapiens, UniProt P55085)
168 GPCRs (Homo sapiens, UniProt P55085), sequence (P55085 26-397): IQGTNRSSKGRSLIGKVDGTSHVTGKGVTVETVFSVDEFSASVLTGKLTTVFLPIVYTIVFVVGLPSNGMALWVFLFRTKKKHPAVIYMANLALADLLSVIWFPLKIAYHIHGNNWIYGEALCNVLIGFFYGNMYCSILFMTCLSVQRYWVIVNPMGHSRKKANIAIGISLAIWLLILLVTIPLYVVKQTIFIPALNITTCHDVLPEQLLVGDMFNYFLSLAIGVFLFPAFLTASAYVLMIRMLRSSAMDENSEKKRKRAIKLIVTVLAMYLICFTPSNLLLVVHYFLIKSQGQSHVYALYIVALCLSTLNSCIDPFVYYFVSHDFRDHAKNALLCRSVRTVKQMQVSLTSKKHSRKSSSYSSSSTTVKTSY

168 GPCRs [11] = target: T1, 168 GPCRs (Homo sapiens, UniProt P30939); conditions: HTR1F
T1 sequence (P30939 1-366): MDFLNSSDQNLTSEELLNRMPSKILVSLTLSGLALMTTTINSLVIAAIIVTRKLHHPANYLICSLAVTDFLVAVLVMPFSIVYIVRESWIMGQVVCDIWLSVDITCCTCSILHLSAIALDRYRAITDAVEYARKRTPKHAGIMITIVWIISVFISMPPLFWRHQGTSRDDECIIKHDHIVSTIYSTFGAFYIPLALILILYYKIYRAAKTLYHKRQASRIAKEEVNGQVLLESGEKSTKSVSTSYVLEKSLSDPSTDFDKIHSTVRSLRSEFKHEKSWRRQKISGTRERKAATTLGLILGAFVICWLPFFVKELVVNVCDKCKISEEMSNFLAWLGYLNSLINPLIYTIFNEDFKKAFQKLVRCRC

168 GPCRs [12] = target: 168 GPCRs (Homo sapiens, UniProt P08908); conditions: HTR1A
168 GPCRs [13] = target: 168 GPCRs (Homo sapiens, UniProt P28336); conditions: NMBR
168 GPCRs (Homo sapiens, UniProt P28336), sequence (P28336 whole entry): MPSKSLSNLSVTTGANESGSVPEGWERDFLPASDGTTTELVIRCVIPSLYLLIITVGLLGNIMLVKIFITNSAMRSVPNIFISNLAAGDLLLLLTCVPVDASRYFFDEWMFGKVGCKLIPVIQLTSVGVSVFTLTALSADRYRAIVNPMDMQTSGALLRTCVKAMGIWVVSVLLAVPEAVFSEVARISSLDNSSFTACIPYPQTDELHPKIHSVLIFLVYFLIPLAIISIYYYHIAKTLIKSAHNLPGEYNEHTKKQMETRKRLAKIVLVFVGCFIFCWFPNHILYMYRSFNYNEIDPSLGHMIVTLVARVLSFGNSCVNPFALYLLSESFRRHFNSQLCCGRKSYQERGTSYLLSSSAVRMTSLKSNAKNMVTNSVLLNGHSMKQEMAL

168 GPCRs [14] = target: 168 GPCRs (Homo sapiens, UniProt Q9HBW0)
168 GPCRs (Homo sapiens, UniProt Q9HBW0), sequence (Q9HBW0 whole entry): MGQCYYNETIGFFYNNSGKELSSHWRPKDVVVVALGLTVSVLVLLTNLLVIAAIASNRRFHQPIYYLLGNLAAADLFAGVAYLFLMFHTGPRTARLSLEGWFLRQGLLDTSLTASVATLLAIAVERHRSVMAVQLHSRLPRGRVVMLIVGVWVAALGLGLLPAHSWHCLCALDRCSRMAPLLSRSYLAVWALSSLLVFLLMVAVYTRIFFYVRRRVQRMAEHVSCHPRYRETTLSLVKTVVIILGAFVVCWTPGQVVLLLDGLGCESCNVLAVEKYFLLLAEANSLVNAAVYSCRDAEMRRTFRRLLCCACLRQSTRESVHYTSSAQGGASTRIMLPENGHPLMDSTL

168 GPCRs [15] = target: T2, 168 GPCRs (Homo sapiens, UniProt P24530); conditions: EDNRB
T2 sequence (P24530 27-442): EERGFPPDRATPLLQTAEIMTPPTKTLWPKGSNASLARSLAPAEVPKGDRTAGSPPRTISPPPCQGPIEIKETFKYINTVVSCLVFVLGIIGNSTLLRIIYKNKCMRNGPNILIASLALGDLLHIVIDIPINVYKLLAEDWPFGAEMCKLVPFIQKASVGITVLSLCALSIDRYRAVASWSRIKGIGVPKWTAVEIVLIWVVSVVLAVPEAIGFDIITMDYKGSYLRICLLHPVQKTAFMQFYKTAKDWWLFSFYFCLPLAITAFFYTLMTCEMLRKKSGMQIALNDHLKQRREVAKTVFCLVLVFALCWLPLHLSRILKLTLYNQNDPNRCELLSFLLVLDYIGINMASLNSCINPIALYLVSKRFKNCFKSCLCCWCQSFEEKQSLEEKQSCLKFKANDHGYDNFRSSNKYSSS

168 GPCRs [16] = target: 168 GPCRs (Homo sapiens, UniProt P18825); conditions: ADRA2C, Antagonist
168 GPCRs (Homo sapiens, UniProt P18825), sequence (P18825 whole entry): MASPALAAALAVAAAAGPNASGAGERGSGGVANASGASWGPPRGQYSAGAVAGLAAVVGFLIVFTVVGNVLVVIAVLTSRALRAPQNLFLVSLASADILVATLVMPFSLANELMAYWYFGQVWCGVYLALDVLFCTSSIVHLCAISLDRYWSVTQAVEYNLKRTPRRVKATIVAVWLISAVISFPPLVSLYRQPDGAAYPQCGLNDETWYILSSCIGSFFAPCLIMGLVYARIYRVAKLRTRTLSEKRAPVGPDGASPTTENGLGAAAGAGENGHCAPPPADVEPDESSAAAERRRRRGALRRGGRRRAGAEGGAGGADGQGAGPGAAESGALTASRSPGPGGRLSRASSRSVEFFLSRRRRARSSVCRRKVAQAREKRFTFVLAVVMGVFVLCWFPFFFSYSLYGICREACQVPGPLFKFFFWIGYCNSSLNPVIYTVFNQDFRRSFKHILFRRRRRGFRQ

168 GPCRs [17] = target: 168 GPCRs (Homo sapiens, UniProt P49238)

168 GPCRs (Homo sapiens, UniProt Q8TDS4), sequence (Q8TDS4 whole entry): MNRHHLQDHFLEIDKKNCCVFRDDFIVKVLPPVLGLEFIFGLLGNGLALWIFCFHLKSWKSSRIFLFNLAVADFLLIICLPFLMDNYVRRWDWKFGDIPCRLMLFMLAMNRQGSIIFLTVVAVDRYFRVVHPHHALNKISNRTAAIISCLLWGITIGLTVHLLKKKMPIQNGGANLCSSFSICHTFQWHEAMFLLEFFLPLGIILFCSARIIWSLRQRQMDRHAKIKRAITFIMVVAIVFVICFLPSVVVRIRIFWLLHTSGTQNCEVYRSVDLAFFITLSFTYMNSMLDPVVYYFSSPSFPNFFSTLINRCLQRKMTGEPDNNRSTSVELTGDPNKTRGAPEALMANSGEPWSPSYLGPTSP
168 GPCRs (Homo sapiens, UniProt P21731), sequence (P21731 whole entry): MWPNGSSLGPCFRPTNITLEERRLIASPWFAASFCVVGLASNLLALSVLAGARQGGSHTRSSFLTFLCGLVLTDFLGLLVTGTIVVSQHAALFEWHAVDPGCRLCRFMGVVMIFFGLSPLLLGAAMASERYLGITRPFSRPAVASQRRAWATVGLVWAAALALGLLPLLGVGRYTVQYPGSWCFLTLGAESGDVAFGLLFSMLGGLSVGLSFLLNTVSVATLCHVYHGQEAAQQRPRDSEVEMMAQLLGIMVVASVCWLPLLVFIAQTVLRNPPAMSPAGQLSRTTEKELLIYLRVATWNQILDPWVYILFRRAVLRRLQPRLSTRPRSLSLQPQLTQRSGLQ
168 GPCRs (Homo sapiens, UniProt P41587), sequence (P41587 24-438): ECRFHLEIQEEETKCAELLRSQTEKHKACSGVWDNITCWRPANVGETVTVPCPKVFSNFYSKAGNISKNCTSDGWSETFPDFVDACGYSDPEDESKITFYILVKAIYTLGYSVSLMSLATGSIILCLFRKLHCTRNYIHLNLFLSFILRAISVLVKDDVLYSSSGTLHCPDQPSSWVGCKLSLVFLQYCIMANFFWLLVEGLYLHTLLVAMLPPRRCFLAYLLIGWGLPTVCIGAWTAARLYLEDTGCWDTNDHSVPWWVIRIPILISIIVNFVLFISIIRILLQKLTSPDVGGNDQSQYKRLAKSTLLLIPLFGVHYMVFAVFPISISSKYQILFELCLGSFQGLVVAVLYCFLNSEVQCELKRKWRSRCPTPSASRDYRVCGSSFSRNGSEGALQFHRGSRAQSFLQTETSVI
168 GPCRs (Homo sapiens, UniProt P25021), sequence (P25021 whole entry): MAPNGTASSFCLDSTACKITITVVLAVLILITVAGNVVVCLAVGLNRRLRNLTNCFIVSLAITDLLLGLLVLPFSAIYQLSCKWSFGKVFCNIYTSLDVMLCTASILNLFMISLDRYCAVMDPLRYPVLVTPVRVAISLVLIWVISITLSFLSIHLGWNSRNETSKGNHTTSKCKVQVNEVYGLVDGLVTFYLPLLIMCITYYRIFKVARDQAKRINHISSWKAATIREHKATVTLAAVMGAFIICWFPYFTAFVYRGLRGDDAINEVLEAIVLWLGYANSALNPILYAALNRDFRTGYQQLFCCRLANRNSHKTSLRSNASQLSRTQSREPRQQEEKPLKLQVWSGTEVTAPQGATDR
168 GPCRs (Homo sapiens, UniProt Q01726), sequence (Q01726 whole entry): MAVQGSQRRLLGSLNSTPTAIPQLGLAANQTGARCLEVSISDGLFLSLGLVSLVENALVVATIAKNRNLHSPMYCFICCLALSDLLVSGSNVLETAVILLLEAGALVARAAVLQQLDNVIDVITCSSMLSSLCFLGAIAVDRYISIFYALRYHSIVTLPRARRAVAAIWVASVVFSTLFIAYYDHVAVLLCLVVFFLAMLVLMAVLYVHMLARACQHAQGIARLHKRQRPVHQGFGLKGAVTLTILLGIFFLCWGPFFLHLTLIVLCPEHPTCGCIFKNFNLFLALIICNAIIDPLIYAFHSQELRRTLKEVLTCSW

**Q.** With `CNC(C)C(=O)c1ccc2c(c1)OCO2` (stereo not shown) [methylone, 3,4-methylenedioxy-N-methylcathinone] as the molecule, how does the activity at 10 µM (168 GPCRs [1]; Antagonist mode, 10 uM) read?
**A.** Its activity at 10 µM is -19.7%.

**Q.** What about the activity at 1 µM (168 GPCRs [1]; Antagonist, 1 uM) of the same molecule?
**A.** The activity at 1 µM was -5.5%.

**Q.** What about the activity at 10 µM (168 GPCRs [2]; Antagonist mode, 10 uM) of the same molecule?
**A.** The activity at 10 µM was 15.9%.

**Q.** What about the activity at 1 µM (168 GPCRs [2]; Antagonist, 1 uM) of the same molecule?
**A.** Its activity at 1 µM is 20.1%.

**Q.** And the activity at 10 µM (168 GPCRs [3]; Antagonist mode, 10 uM)?
**A.** The activity at 10 µM was -0.3%.

**Q.** And the activity at 1 µM (168 GPCRs [3]; Antagonist, 1 uM)?
**A.** Its activity at 1 µM is 1.4%.

**Q.** And the activity at 10 µM (168 GPCRs [4]; HRH2, Antagonist mode, 10 uM)?
**A.** Its activity at 10 µM is 8.1%.

**Q.** And the activity at 1 µM (168 GPCRs [4]; HRH2, Antagonist, 1 uM)?
**A.** Its activity at 1 µM is 7.1%.

**Q.** And the activity at 10 µM (168 GPCRs [5]; VIPR2, Antagonist mode, 10 uM)?
**A.** The activity at 10 µM was -2.6%.

**Q.** What about the activity at 1 µM (168 GPCRs [5]; VIPR2, Antagonist, 1 uM) of the same molecule?
**A.** Its activity at 1 µM is -1.5%.

**Q.** And the activity at 1 µM (168 GPCRs [6]; 1 uM)?
**A.** The activity at 1 µM was -11.8%.

**Q.** What about the activity at 10 µM (168 GPCRs [6]; 10 uM) of the same molecule?
**A.** Its activity at 10 µM is -4%.

**Q.** And the activity at 10 µM (168 GPCRs [7]; EBI2, Antagonist mode, 10 uM)?
**A.** Its activity at 10 µM is 2.6%.

**Q.** And the activity at 1 µM (168 GPCRs [7]; EBI2, Antagonist, 1 uM)?
**A.** Its activity at 1 µM is 0.6%.

**Q.** What about the activity at 10 µM (168 GPCRs [8]; TACR3, Antagonist mode, 10 uM) of the same molecule?
**A.** The activity at 10 µM was -14.3%.

**Q.** And the activity at 1 µM (168 GPCRs [8]; TACR3, Antagonist, 1 uM)?
**A.** Its activity at 1 µM is -3.9%.

**Q.** And the activity at 1 µM (168 GPCRs [9]; 1 uM)?
**A.** The activity at 1 µM was 9.8%.

**Q.** What about the activity at 10 µM (168 GPCRs [9]; 10 uM) of the same molecule?
**A.** Its activity at 10 µM is 3.5%.

**Q.** What about the activity at 10 µM (168 GPCRs [10]; F2RL1, Antagonist mode, 10 uM) of the same molecule?
**A.** Its activity at 10 µM is 16.2%.

**Q.** And the activity at 1 µM (168 GPCRs [10]; F2RL1, Antagonist, 1 uM)?
**A.** The activity at 1 µM was -26.8%.

**Q.** And the activity at 10 µM (168 GPCRs [11]; Antagonist mode, 10 uM)?
**A.** The activity at 10 µM was 9.2%.

**Q.** And the activity at 1 µM (168 GPCRs [11]; Antagonist, 1 uM)?
**A.** Its activity at 1 µM is 14.4%.

**Q.** And the activity at 10 µM (168 GPCRs [12]; Antagonist mode, 10 uM)?
**A.** Its activity at 10 µM is -6.4%.

**Q.** What about the activity at 1 µM (168 GPCRs [12]; Antagonist, 1 uM) of the same molecule?
**A.** The activity at 1 µM was -5.2%.

**Q.** What about the activity at 10 µM (168 GPCRs [13]; Antagonist mode, 10 uM) of the same molecule?
**A.** Its activity at 10 µM is 13.2%.

**Q.** What about the activity at 1 µM (168 GPCRs [13]; Antagonist, 1 uM) of the same molecule?
**A.** The activity at 1 µM was 10.3%.

**Q.** What about the activity at 10 µM (168 GPCRs [14]; EDG4, Antagonist mode, 10 uM) of the same molecule?
**A.** Its activity at 10 µM is -21%.

**Q.** What about the activity at 1 µM (168 GPCRs [14]; EDG4, Antagonist, 1 uM) of the same molecule?
**A.** The activity at 1 µM was -10.2%.

**Q.** What about the activity at 10 µM (168 GPCRs [15]; Antagonist mode, 10 uM) of the same molecule?
**A.** The activity at 10 µM was 10.9%.

**Q.** And the activity at 1 µM (168 GPCRs [15]; Antagonist, 1 uM)?
**A.** The activity at 1 µM was 17.5%.

**Q.** What about the activity at 1 µM (168 GPCRs [16]; 1 uM) of the same molecule?
**A.** The activity at 1 µM was -4.3%.

**Q.** And the activity at 10 µM (168 GPCRs [16]; 10 uM)?
**A.** The activity at 10 µM was 17.6%.

**Q.** And the activity at 10 µM (168 GPCRs [17]; CX3CR1, Antagonist mode, 10 uM)?
**A.** Its activity at 10 µM is -6.1%.

**Q.** What about the activity at 1 µM (168 GPCRs [17]; CX3CR1, Antagonist, 1 uM) of the same molecule?
**A.** Its activity at 1 µM is -0.2%.

From patent US12343326B2, “Psychoactive medicines and their use for treating psychiatric and neurological conditions and disorders” (Transcend Therapeutics, Inc., priority 2021, dated 2025)
